Series [1] concerns RBL-2H3 cells. The series can be described thus: Degranulation suppression test of RBL-2H3 cells (β-hexosaminidase release, IgE stimulation). It is filed as cell-based, Rat. Particulars: for Degranulation ratio: relative to untreated control, n = 4. Here is the method: 1. Degranulation Suppression Test of RBL-2H3 Cells
As to Compound 3, the granule release (degranulation) suppression action on RBL-2H3 cell by IgE stimulation, which is a cell model for an allergic reaction, was examined.
A test substance (50 mg) was dissolved by adding 1 mL of 50 vol % ethanol to the test substance to obtain a concentration of 50 mg/mL. The solution thus obtained was diluted with a buffer solution. […] The concentrations were all indicated as the concentrations in cell supernatants.
β-Hexosaminidase abundantly present in granules of RBL-2H3 cells was used as the index of degranulation caused by IgE stimulation, and p-nitrophenol produced by the reaction with a substrate was measured by colorimetric assay. The activity values of β-hexosaminidase present within cells and released in the culture supernatant were determined to obtain the release rate of β-hexosaminidase, and then, a degranulation rate relative to an untreated control was obtained. Based on this, degranulation inhibitory action was evaluated.
Main test conditions and outline of the operation will be described below.
Cell: Rat basophil leukemic cell, RBL-2H3 [Human Sciences Foundation]
Stimulation of degranulation: Anti-DNP-IgE antibody, DNP labeled albumin [Sigma-Aldrich Corporation]
Degranulation Index: 3-Hexosaminidase activity
Measurement apparatus: Microplate reader, SpectraMax M2c • [Molecular Devices Corporation]
In this test, an action to suppress granule release (degranulation) in mast cells caused by an IgE antigen stimulation is evaluated. Thus, the smaller the degranulation ratio is, the stronger the effect is […]

The test system of series [2] is A549 (lung cancer). In words: Evaluation of anticancer action, cell proliferation inhibition (WST-8), A549. It is filed as cell-based. Particulars: Homo sapiens, A549, about 72 hours. The text has this:
(§1) The cell proliferation inhibitory effects of a test substance (Compound 3) on various types of cancer cells were examined.
(§2) 1. Measuring Reagent and Analysis Software
(§3) WST-8 Kit (Cat. No. 260-96165 or 260-96162; manufactured by Kishida Chemical Co., Ltd.) for counting cell number
(§4) Software for graph making and measurement of GI50 value: XLfit 5.2 (ID Business Solutions Ltd.)
(§5) 2. Cells and Culture Conditions
(§6) Five types of cells and medium (the following Table) were used. The cells were obtained from the Research Resource Bank of the Human Sciences Foundation.
(§7) On the day when a sample was to be added, the sample was weighed and a medium for each type of cells was added so as to be 500 μg/mL. Sonication was performed while warming at 37° C. for 60 minutes to be dissolved. Then, filtration was performed by a 0.22 m-filter. The 500 μg/mL-solution was diluted with the medium for each type of cells to prepare 200 μg/mL, 60 μg/mL, 20 μg/mL, 6 μg/mL, 2 μg/mL, 0.6 μg/mL and 0.2 μg/mL solutions, which were specified as two-fold concentration test solutions (the final concentrations of the test substance were 250 µg/mL, 100 μg/mL, 30 μg/mL, 10 μg/mL, 3 μg/mL, 1 μg/mL, 0.3 μg/mL, […], respectively). […]
(§8) (8) Absorbance values at 450 nm and 650 nm were measured to calculate O.D. 450 and O.D. 650. […]
(§9) ODdrug-exposed wells: absorbance of a well containing a sample […]
A general note: Tetrazolium dyes change colour on reduction, which living cells bring about.

In series [3] the test system is Hep G2 (liver cancer). The series can be described thus: Evaluation of anticancer action, cell proliferation inhibition (WST-8), Hep G2. It is filed as cell-based. Particulars: Homo sapiens, HepG2, Hep G2, about 72 hours.
From the text: as §1, §2, §3, §4, §5, §6, §7, §8, §9

Converted amounts (≈) assume the structure as drawn.

On to `O=C(Nc1ccc(S(F)(F)(F)(F)F)cc1)c1cc(O)c(O)c(O)c1` [Compound 3, 4-(3,4,5-trihydroxybenzoylamino)pentafluorosulfanylbenzene], for which the “cytotoxicity (visual)” value in series [1] (RBL-2H3 cells, any concentration) is given as “not visually confirmed”. In addition, the Degranulation ratio is 91% in series [1] (sample 1 μg/mL); 85% in series [1] (sample 10 μg/mL); 73% in series [1] (sample 25 μg/mL); 35% in series [1] (sample 50 μg/mL in cell supernatant); 19% in series [1] (sample 100 μg/mL in cell supernatant). Further, the GI50 is 13.3 µg/mL (≈ 35.8 µM) in series [2] and 9.8 µg/mL (≈ 26.4 µM) in series [3].

In general, GI50 refers to the concentration that inhibits growth by half. Read a low GI50 as more potent growth inhibition.

These data come from patent US9682931B2, “Aryloyl(oxy or amino)pentafluorosulfanylbenzene compound, pharmaceutically acceptable salt thereof, and prodrugs thereof” (UBE INDUSTRIES, LTD., priority 2013, dated 2017).
